Assay results from patent US11197863B2, “Inhibitors of polo-like kinase 4 (PLK4) for treating pediatric embryonal tumors” (ANN AND ROBERT H. LURIE CHILDREN'S HOSPITAL OF CHICAGO, priority 2017, dated 2021).

Columns and labels:
[1] = system: MON, G401, BT-12, and BT-16 cells; assay: MTT cell proliferation assay, rhabdoid tumor cell lines; type: cell-based, human; conditions: all cell lines evaluated; 10-500 nM, 48 and 72 hr
Description: The expression of PLK4 (Hs00179514_m1) was verified by TaqMan GE assays (Thermo Fisher Scientific, USA) using the housekeeping gene GAPDH (Hs02758991_g1) as reference as previously described.[30] PLK4 inhibitor. […] Cell proliferation was evaluated by MTT assay and cell survival was evaluated by clonogenic assays using increasing concentrations of the drug in different time-points, as described below.
(§1) To evaluate cell proliferation, we used TACS MTT Cell Proliferation Assays (Trevigen, USA). We plated 2×10^3 cells on each well of a 96-well plate and the absorbance was measured after 48 and 72 hr at concentrations of 10, 50, 100, 200, and 500 nM. Each experiment was performed in triplicates.

DAOY and D283 cells [2] = assay: MTT proliferation assay, MB cell lines; type: cell-based, human; conditions: 72 hours of treatment vs 0.1% DMSO
Description: as §1
(§2) For proliferation assay DAOY was plated with 5×10^4 cells per well and D283 was plated with 5×10^5 cells per well.

[3] = system: MON, G401, BT-12, and BT-16 cells; assay: Clonogenic assay, rhabdoid tumor cell lines; type: cell-based, human; conditions: 50-200 nM; analyzed 14 days after treatment
Description: (§3) For each cell line, 200 cells were seeded into six-well plates, incubated for 14 days, fixed with formalin, stained with Cresyl violet (ACROS Organics, USA), and the number of colonies counted using Image J software (www.imagej.nih.gov).
To evaluate the effect of the PLK4 mutation over cell survival, MON-PLK4-mutated cells were compared with MON-Cas9. […] Controls were treated with 0.1% DMSO. All experiments were performed in triplicates.

DAOY and D283 cells [4] = assay: Colony formation assay, MB cell lines; type: cell-based, human; conditions: 50 nM
Description: as §3, §2

MON cells = assay: Invasion and migration assays (Transwell); type: cell-based, human; conditions: 100 nM, 24 hr
Description: (§4) Both migration and invasion were assessed using a 24-well Transwell chamber system (Corning, USA).[35] MON cells were plated at 20,000 per well for cell migration and at 50,000 per well coated with matrigel (200 μg/ml, 3 hr of solidification) for cell invasion. HFF-SCC058 cells were used as negative controls. […] All experiments were performed in triplicates.

DAOY and D283 cells [5] = assay: Migration and invasion assays, MB cell lines; type: cell-based, human; conditions: 100 nM, 24 hour vs 0.1% DMSO
Description: as §4, §2

zebrafish larvae = assay: In vivo toxicity assay in zebrafish larvae
Description: Control larvae were exposed to 2% DMSO. Survival and delays in development and morphologic abnormalities were recorded at three time-points (24, 48, and 72 h of treatment). For each condition, groups of 20 larvae were analyzed in triplicates totalizing 420 subjects and 60 controls. Two-way ANOVA was used to analyze the results.

[6] = system: HFF-SCC058 non-neoplastic human fibroblast cells; assay: Immunofluorescence for gamma-tubulin (centriole number); type: cell-based; conditions: 100 and 500 nM
Description: The cells were then blocked in blocking buffer (5% BSA (Jackson Immuno Research Laboratories Inc., USA) in PBST) for 1 hour at RT. The primary antibody ([…] 1:500, Sigma, USA) diluted in 1% BSA in PBST was then added and incubated at 4° C. overnight. Then, the cells were washed with 1×PBS thrice. Secondary antibody (Anti-Rabbit IgG (H+L) F (ab′) 2, 1:500, Sigma, USA) diluted in 1% BSA in PBST was added and incubated at RT for 2 hours. Three time washes with IX PBS were performed. Then, 1 mL of DAPI (Thermo Fisher Scientific, USA) in PBS (0.5 μl of DAPI in 10 ml PBS) was added to the cells and incubated for 10 min at RT. Finally, 3 time washes with 1×PBS were performed and slides were mounted using Mounting Medium (Thermo Fisher Scientific, USA).

[7] = system: MON, G401, BT-12, BT-16 DAOY and D283 cells; assay: Senescence beta galactosidase assay; type: cell-based, human; conditions: 100 nM, 48 hours; all cell lines
Description: For each cell line, cells were seeded in 6-well plates in triplicates with 100,000 cells per well. Treatment medium was added the next day and incubated for 48 or 72 hrs. After incubation, cells were washed twice with 1×PBS and 1 mL of the Fixation Buffer from the kit was added to each well of the plate and incubated at RT for 5 min. Cells were washed with 1×PBS and 1 mL of staining solution from the kit was added to each well and incubated at 37° C. without CO2 overnight. The next day, the cells were washed with 1×PBS and the numbers of blue stained cells (which indicate senescent cells) and unstained cells were counted in image J (www.imagej.nih.gov). The percentage of senescent cells was calculated.

[8] = system: BT-12 AT/RT intracranial xenografts; assay: Intracranial AT/RT xenograft tumors; type: in vivo, mice; conditions: 7.5 mg/kg/day oral for 21 days
From the text: Six-week-old female athymic mice (rnu/rnu genotype, BALB/c background) were purchased from Envigo (Harlan) and housed under aseptic conditions, which included filtered air and sterilized food, water, bedding, and cages. The Northwestern University Institutional Animal Care and Use Committee approved all animal protocols. The BT-12 AT/RT cell line, which has high expression of PLK4 was modified to express luciferase and injected intracranially in nude mice as previously described. Each mouse was injected with a cell suspension (10,000 cells/3 μL) into the right caudate putamen of the brain. […] Bioluminescence monitoring was performed twice a week throughout the course of the experiment for quantitative measurement of tumor growth and response to therapy. Kaplan-Meier survival analysis was performed to assess survival benefit within the treatment group as compared to controls. Differences between survival curves were calculated using a log-rank test. Brains were resected at 6 hours following completion of the treatment and placed in 4% paraformaldthyde for subsequent histological examination.

normal breast cells = conditions: Sampson et al.; cited from earlier work
Aurora kinase B = Aurora kinase B (Homo sapiens, UniProt Q96GD4); conditions: cited from earlier work
Sequence of Aurora kinase B (Q96GD4 whole entry, species assumed): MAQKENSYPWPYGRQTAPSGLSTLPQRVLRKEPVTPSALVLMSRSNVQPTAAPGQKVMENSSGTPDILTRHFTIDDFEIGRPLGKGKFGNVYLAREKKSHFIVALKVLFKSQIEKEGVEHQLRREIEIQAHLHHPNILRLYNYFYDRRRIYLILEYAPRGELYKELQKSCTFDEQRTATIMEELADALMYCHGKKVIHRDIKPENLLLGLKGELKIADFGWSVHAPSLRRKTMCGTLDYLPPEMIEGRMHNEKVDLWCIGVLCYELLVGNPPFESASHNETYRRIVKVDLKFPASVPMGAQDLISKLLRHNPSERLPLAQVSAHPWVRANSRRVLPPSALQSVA

## COc1ccc2c(c1)[C@]1(C[C@H]1c1ccc3c(/C=C/c4ccc(CN5C[C@@H](C)O[C@@H](C)C5)cc4)n[nH]c3c1)C(=O)N2 [CFI-400945]
[1]
  cell proliferation (MTT): significant reduction of cell proliferation
DAOY and D283 cells [2]
  cell proliferation (MTT): significantly decreased proliferation
[3]
  colonies (clonogenic assay): complete absence of colonies
DAOY and D283 cells [4]
  colony formation: Complete inhibition of colony formation
MON cells
  invasion and migration: significant reduction
DAOY and D283 cells [5]
  cell migration and invasion: significant decrease in cell migration and invasion
Zebrafish larvae; 10 nM to 20 μM for 3 days, over 400 larvae
  larvae deaths: no increase in larvae deaths
Zebrafish larvae; extremely high concentrations (10 and 20 μM)
  morphologic abnormalities: edema and body curvature were consistently observed
[6]
  paradoxical effect on centriole number: not observed
[7]
  senescent cells: significant increase of senescent cells
[8]; p=0.0146
  growth of intracranial AT/RT tumors (bioluminescence): significantly reduced the growth
[8]; p=0.0477, log-rank
  survival: extended the survival
Normal breast cells
  effect on normal breast cells: unaffected
Aurora kinase B
  activity against Aurora kinase B: certain activity
